According to US8952059B2, “Acetyl L-carnitine for the preparation of a medicament for the prevention of painful peripheral neuropathy in patients with type 2 diabetes” (Sigma-Tau Industrie Farmaceutiche Riunite S.P.A., priority 2005, dated 2015):
Read-outs that look alike come from different tables or passages of the source.

What was measured:
[1] = test system: diabetic patients suffering from neuropathy; details: cited from earlier work
[2] = test system: patients with type 2 diabetes (symptoms of painful peripheral neuropathy); experiment: Clinical Trial BM 14329: multicentre, randomised, double-blind, placebo-controlled, 52 weeks; format: in vivo, human; details: for Patients with symptom: Pain / Patients with symptom: Pain, hyperaesthesia, paraesthesia: 3.0 g/day; for Patients with symptom: Pain: n = 217 type 2 diabetes patients without the symptom at basal; for Patients with symptom: Pain, hyperaesthesia, paraesthesia: n = 217 type 2 diabetes patients without the symptoms at basal
Procedure: (§1) A multicentre, randomised, double-blind, placebo-controlled clinical trial of 52 weeks' duration was conducted in patients with type 2 diabetes suffering from diabetic peripheral neuropathy.
(§2) The patients were treated with acetyl L-carnitine at a dose of 0.5 grams or 1 gram, three times daily, or with placebo for 52 weeks.
(§3) The patients recruited into the trial were patients of male and female sex and were aged from 18 to 70 years, in whom diabetes had been diagnosed more than one year earlier and presenting HbA1c greater than 5.9%.
(§4) After 12, 26 and 52 weeks of treatment, the presence and intensity of pain, paraesthesia and hyperaesthesia, amongst other variables, were assessed as characteristic symptoms of painful peripheral neuropathy in patients who at the time of recruitment presented no such symptoms.

[3] = test system: patients with type 2 diabetes (symptoms of painful peripheral neuropathy); experiment: Clinical Trial BM 14330: multicentre, randomised, double-blind, placebo-controlled, same characteristics as Example 1; format: in vivo, human; details: for Patients with symptom: Pain / Patients with symptom: Pain, hyperaesthesia, paraesthesia: 3.0 g/day; for Patients with symptom: Pain: n = 181 type 2 diabetes patients without the symptom at basal; for Patients with symptom: Pain, hyperaesthesia, paraesthesia: n = 181 type 2 diabetes patients without the symptoms at basal
Procedure: as §1, §2, §3, §4
A multicentre randomised, double-blind, placebo-controlled clinical trial was conducted with the same characteristics as the clinical trial described in Example 1.

SMILES: CC(=O)O[C@H](CC(=O)[O-])C[N+](C)(C)C [Acetyl L-carnitine, acetyl L-carnitine]
- Nerve conduction velocity ([1]; diabetic patients suffering from neuropathy, Drugs 1997 September: 54 (3) 414-421): improves nerve conduction velocity
- Nerve conduction velocity ([1]; diabetic patients suffering from polyneuropathy, Journal of the Neurological Sciences, 1997, Suppl. to Vol 150): improves nerve conduction velocity
- Relief of pain symptoms and regeneration of nerve fibres ([1]; patients suffering from stabilised diabetic neuropathy, Diabetes Care, 2005, 28(1): 89-94): useful for relieving the pain symptoms and for regenerating nerve fibres
- Patients with symptom: Pain ([2]; 12 weeks): 17.1%
- Patients with symptom: Pain, hyperaesthesia, paraesthesia ([2]; 12 weeks): 35.5%
- Patients with symptom: Pain ([2]; 26 weeks): 20.3%
- Patients with symptom: Pain, hyperaesthesia, paraesthesia ([2]; 26 weeks): 38.6%
- Patients with symptom: Pain ([2]; 52 weeks): 29.5%
- Patients with symptom: Pain, hyperaesthesia, paraesthesia ([2]; 52 weeks): 47.5%
- Prevention of symptoms typical of diabetic painful peripheral neuropathy (pain, hyperaesthesia, paraesthesia) ([2]; patients without such symptoms at entry, only in type 2 diabetes and at the higher dose): capable not only of curing but also of preventing the symptoms
- Ability to prevent the onset of symptoms associated with diabetic painful peripheral neuropathy ([2]; summary of Tables 1-3, 3 grams/day): statistically significant ability to prevent the onset of symptoms
- Curative effect on symptoms of diabetic peripheral neuropathy already present at the start of the trial ([2]; treatment for 26 or 52 weeks, effect better only in patients with type 2 diabetes): capable of curing the symptoms of diabetic peripheral neuropathy
- Patients with symptom: Pain ([3]; 12 weeks): 27.6%
- Patients with symptom: Pain, hyperaesthesia, paraesthesia ([3]; 12 weeks): 42.5%
- Patients with symptom: Pain ([3]; 52 weeks): 35.9%
- Patients with symptom: Pain, hyperaesthesia, paraesthesia ([3]; 52 weeks): 48.1%
- Patients with symptom: Pain ([3]; Table 5, head prints 12 weeks): 28.7%
- Patients with symptom: Pain, hyperaesthesia, paraesthesia ([3]; Table 5, head prints 12 weeks): 43.1%
- Ability to prevent the onset of symptoms associated with diabetic painful peripheral neuropathy ([3]; summary of Tables 4-6, 3 grams/day): statistically significant ability to prevent the onset of symptoms
